# Test results published in patent publication US20250186321A1, “FORMULATION USING AMINO ACID AND CARBOXYLIC ACID, ORGANIC SALT, AND COMPOSITION COMPRISING SAME AND USE THEREOF” (MIYOSHI OIL & FAT CO., LTD., priority 2021, published 2025).
# Assays:
# [1] = Appearance of formulation (state at 25° C.); type: physicochemical; settings: formulation at the compounding molar ratio listed
# [2] = Appearance of formulation (state at 25° C.); type: physicochemical; settings: 25° C.
# Description: Formulations 1 to 427 shown in Tables 1A to 1D were prepared by the above-described method using the components (A) and (B) at the compounding molar ratios shown in the tables, and their states at 25° C. were observed.
# [3] = Water retention evaluation (moisture reduction rate); type: physicochemical; settings: for Moisture eduction rate / Moisture content before test (A): 80 wt. % aqueous solution; for Moisture eduction rate: 24 hours at 35° C. and 25% RH, calculated from A and B; for Moisture content before test (A): Karl Fischer; for Presence or absence of hydrates: left until the moisture content remained unchanged, based on final moisture content
# Description: 80 wt. % aqueous solutions of the formulations (organic salts) of the working examples 428 to 459 and comparative examples 1 to 5 in Tables 2A and 2B were prepared, and the water contents were measured using a Karl Fischer moisture meter (CA-200 manufactured by Mitsubishi Chemical Analytech Co., Ltd.). It was confirmed that the water contents of them were 20.0 wt. % (moisture content before test: A). Each of the 1.0 g samples was added to a screw tube, and left uncovered to stand still for 24 hours in a constant temperature and humidity bath (KCL-2000W manufactured by Tokyo Rikakikai Co., Ltd.) which was set at 35° C. and 25% RH. Moisture contents after being left for 24 hours were measured again (moisture content after test: B) to evaluate their water retention property by using the following formula for calculating the moisture reduction rates. After that, it was left to stand still until the moisture content remained unchanged, and determinations of the hydrate and the number of hydrated water were made based on the final moisture contents. • Moisture content before test: A (%) • Moisture content after test: B (%)
# [4] = Solubility evaluation of polyoxyethylene alkyl ether (AE) in the formulations; type: physicochemical; settings: polyoxyethylene alkyl ether (Peletex 2465); left at 25° C. for 24 hours, visual
# Description: Into 20 wt. % aqueous solutions of the formulations (organic salts) shown in Table 10 are dissolved methylparaben (manufactured by Tokyo Kasei, hereinafter, paraben) at 1.0 wt. %, 0.5 wt. % and 0.25 wt. % at 80° C. to prepare the respective antibacterial compositions.
# Polyoxyethylene alkyl ether (hereinafter referred to as AE) which is an antiviral substance recognized to be effective against viruses was also subjected to the similar procedure to evaluate the solubility based on the above-mentioned criteria. As the AE, Peletex 2465, manufactured by Miyoshi Oil & Fats Co., Ltd., was used. (Table 10)
# [5] = Hygroscopicity evaluation (moisture content); type: physicochemical; settings: dried in vacuum at 60° C. for 18 hours, then 1 month at room temperature, Karl Fischer
# Description: The working examples 460 to 470 and the comparative example 6 in Table 3 were completely dried in a vacuum dryer at 60° C. for 18 hours, and then left to stand still at room temperature for 1 month whose moisture contents were then measured using a Karl Fischer moisture meter (CA-200 manufactured by Mitsubishi Chemical Analytech Co., Ltd.) to evaluate their hygroscopicity.
# Staphylococcus aureus = assay: Antibacterial property evaluation 2 (halo test 1); type: cell-based; settings: JISL1902
# From the text: The following reagents, etc, were used for minimum inhibitory concentration (MIC) measurement and halo test. • Staphylococcus aureus: strain of NBRC15035, NITE • Escherichia coli: strain of […], NITE • Potassium lactate manufactured by Fujifilm Wako Pure Chemical • Medium of Muller-Hinton broth: Becton, Dickinson and Company • Media for revival of L-dried specimens “DAIGO” manufactured by Fujifilm Wako Pure Chemical • Calcium chloride manufactured by Fuji Film Wako Pure Chemical • Magnesium chloride manufactured by Fuji Film Wako Pure Chemical • […] Snow Brand • Meat extract: from Solabia Biokar Diagnostics • Peptone: from Solabia Biokar Diagnostics • Sodium chloride manufactured by Fuji Film Wako Pure Chemical • Agar manufactured by Fuji Film Wako Pure Chemical […]
# [6] = Component (A) amino acid; cited from earlier work
# [7] = Adhesiveness evaluation (adhesion rate to filter paper); type: physicochemical; settings: vacuum dehydration for 8 hours at 60° C.
# Description: The adhesion rates of the samples were each calculated from the weight change of the filter paper (Table 9). As a blank test, 100 μL of water was dropped on the filter paper, and this filter paper was dried in a vacuum. The change in weight was measured and used as the correction value.
SMILES,state at 25° C. ([1]; Tables 2A/2B),Moisture eduction rate [3],Moisture content before test (A) [3],Presence or absence of hydrates [3],isoelectric points of amino acids (values in parentheses) [6],also measured
N[C@@H](CO)C(=O)O.O=C(O)[C@H](O)[C@@H](O)[C@H](O)[C@H](O)CO [Formulation 243],Liquid,41.6%,20.0%,Present,,"state at 25° C. ([2]; components (A) and (B) at the compounding molar ratio shown): Liquid; state at 25° C. ([2]; components (A) and (B) at the compounding molar ratio shown, listed as Working example 243): liquid; n-hydrate ([3]; number of hydrated water based on final moisture content): Mono-"
Cl.NCCCC[C@H](N)C(=O)O [Formulation 429],Solid,68.2%,20.0%,Absent,,
CCCC[N+](CCCC)(CCCC)CCCC.[Br-] [Formulation 430],Solid,70.0%,20.0%,Absent,,state at 25° C. [2]: Solid; Solubility into 20 wt. % aqueous solution of the formulations: AE [4]: ⊚ (1.0 wt. % or more; no crystal precipitation was observed)
CCCCn1cc[n+](C)c1.F[B-](F)(F)F [Formulation 431],Liquid,71.5%,20.0%,Absent,,state at 25° C. [2]: Solid; Solubility into 20 wt. % aqueous solution of the formulations: AE [4]: ⊚ (1.0 wt. % or more; no crystal precipitation was observed)
"CCCCCCCC/C=C\CCCCCCCC(=O)[O-].[Na+] [Formulation 433, reference compound]",,,,,,state at 25° C. ([1]; Table 3): Solid; Hygroscopicity test Moisture content after test [5]: 0.0%
CCO [Formulation 436],,,,,,state at 25° C. [2]: Liquid; Halo test 1: Presence or absence of halo (Staphylococcus aureus; Concentration 10 Wt. % aqueous solution on filter paper): Absent; Halo test 1: Presence or absence of halo (Staphylococcus aureus; Concentration 50 Wt. % aqueous solution on filter paper): Absent
N[C@@H](CS)C(=O)O [cysteine],,,,,(5.07),
"CCO [ethanol, reference compound]",,,,,,presence or absence of halos (halo test 1) (Staphylococcus aureus; Staphylococcus aureus): no halo was observed; adhesion to the filter paper [7]: did not adhere to the filter paper
CSCC[C@H](N)C(=O)O [methionine],,,,,(5.74),
N[C@@H](Cc1ccccc1)C(=O)O [phenylalanine],,,,,(5.48),
O=C(O)[C@@H]1CCCN1 [proline],,,,,(6.30),
N[C@@H](Cc1c[nH]c2ccccc12)C(=O)O [tryptophan],,,,,(5.89),
